For data set [1] the following is noted: cited from earlier work.
Data set [2] is described as follows: kettle test of corrosion inhibition, atmospheric CO2, NACE brine/ISOPAR-M. As to conditions: 2.5 or 5 ppm added; 150° F. (66° C.), atmospheric CO2, 90% NACE brine and 10% ISOPAR-M; immediately after injection; blank 140 to 190 mpy. How it is done: FIG. 1 is a graph of the corrosion rate of mild steel at 150° F. (66° C.) in kettle tests at atmospheric CO2 with two different concentrations of 2,5-dimercapto-1,3,4-thiadiazole in a brine fluid.
A formulation of 10% 2,5-dimercapto-1,3,4 thiadiazole (DMTDA) in water with KOH added to adjust the pH to 8.1 was made. The corrosion inhibition of this formulation was tested in a kettle test at 150° F. (66° C.), atmospheric CO2 in a 90% NACE (National Association of Corrosion Engineers) brine and 10% ISOPAR™-M mixture.
The blank corrosion rates range from 140 to 190 mpy (mils per year). Immediately with the injection of the corrosion inhibitor, the corrosion rate lowered to below 40 mpy in the test with the addition of 2.5 or 5 ppm of 2,5-dimercapto-1,3,4-thiadiazole.

For `Sc1nnc(S)s1` [2,5-dimercapto-1,3,4-thiadiazole], in data set [1], the solubility in water is given as 0.01 wt %. The corrosion rate entry in data set [2] is listed as “below 40 mpy”.

Source of the values: patent US20150267113A1, “Dimercaptothiadiazoles to Prevent Corrosion of Mild Steel by Acid Gases in Oil and Gas Products” (BAKER HUGHES INCORPORATED, priority 2014, published 2015).
